Reference: PMC10699557, “A recombinant approach for stapled peptide discovery yields inhibitors of the RAD51 recombinase” (Chemical Science, 2023)
Numbered stars: 1 amine (or outer) side, 2 acyl side, 3 side chain; on linkers, the order of the positions; unused ones are H or OH. Bridge positions count the residues as written; N and C are the ends. Peptide text beside a SMILES is read from it. X1 = Nc1nc(CC[*:1])cc(CC[*:2])n1

What was measured:
[1] = system: RAD51:dT60 nucleoprotein filament (full-length human RAD51); assay: Electrophoretic mobility shift assay (EMSA) of nucleoprotein filament disruption; type: biochemical; details: 5 μM full-length human RAD51, 100 nM FAM-dT60, varying peptide concentrations; 50 mM HEPES pH 7.4, 1 mM ATP
Method: We evaluated the effect of stapled peptides SP2, SP24 and SP30 on the nucleoprotein filament using electrophoretic mobility shift assay (EMSA, Fig. 3D). A fluorescently labelled dT60 oligonucleotide was incubated with full-length RAD51, after which the peptides were added at different concentrations before separating the products on a polyacrylamide gel.
(§1) Isothermal titration calorimetry
(§2) Peptides were resuspended in MilliQ water to 10 times the desired final concentration.
This was then diluted 10x with the ITC buffer to obtain the final titrant solution (20 mM CHES pH 9.5, 150 mM NaCl, 0.1% Tween-20). HumRadA22 was buffer-exchanged on a NAP-5 desalting column (Cytiva) into ITC buffer and protein concentration was adjusted to 10:9 of the desired final value. One ninth volume of MilliQ water was added to the solution to bring the protein concentration to the desired final value, while maintaining identical buffer:MilliQ volume proportions in both the syringe and the cell. ITC was carried out using a Microcal ITC200 or Malvern PEAQ ITC instruments at 25°C with a 5.00 μCal reference power DP value, stirring speed of 500-750 rpm, 2 sec filter period. Injection spacing, speed and volume, cell/syringe concentrations as well as the number of injections were adjusted for each peptide and its binding properties. ITC data were fitted using a single-site binding model using the Microcal ITC data analysis program in the Origin 7.0 package. Data points affected by baseline spikes were omitted from the analysis.
Circular dichroism spectroscopy
(§3) Dried peptides were dissolved in MilliQ water to 0.3 mg/ml, and then two-fold diluted in 20 mM sodium phosphate, pH 7.4, giving a final solution of 0.15 mg/ml peptide in 10 mM sodium phosphate. CD spectra of selected peptides were recorded on an AVIV 410 circular dichroism spectropolarimeter using a 1 mm path length quartz cuvette. […]
(§4) The ability of linear and stapled BRC repeat peptides to dissociate RAD51-ssDNA nucleofilament was evaluated using an electrophoretic mobility shift assay (EMSA). […]

[2] = molecular target: HumRadA22 (Pyrococcus furiosus, UniProt O74036); assay: Isothermal titration calorimetry (ITC) of peptide binding; parameters: species or system archaeal RadA mutant with human Rad51 surface residues; details: Fig. S3; stapled Arg9-fused peptide
Method: We then evaluated the binding of free peptides to HumRadA22 using FP competition assay and isothermal titration calorimetry (Table 1 and Fig. 3B and C). […] All three peptides SP2, SP24 and SP30 bound with similar low-nanomolar affinities in ITC, and the binding appears to be slightly weaker relative to the linear BRC8-2 template (Fig. 3C).
as §1, §2
This was then diluted 10x with the ITC buffer to obtain the final titrant solution (20 mM CHES pH 9.5, 150 mM NaCl, 0.1% Tween-20). HumRadA22 was buffer-exchanged on a NAP-5 desalting column (Cytiva) into ITC buffer and protein concentration was adjusted to 10:9 of the desired final value. […]
as §3, §4

Row | Structure (SMILES) | Depolymerisation of RAD51 from single-stranded DNA (EMSA) [1] | Binding affinity towards HumRadA22 by ITC (in words) [2]
1 | CC(C)C[C@@H]1NC(=O)[C@H](CCCCN)NC(=O)[C@H](CCCCN)NC(=O)CNC(=O)[C@H](CO)NC(=O)[C@H](C)NC(=O)[C@H]([C@@H](C)O)NC(=O)[C@H](CO)NC(=O)[C@H](Cc2ccccc2)NC(=O)CNC(=O)[C@H](CO)NC(=O)[C@@H](NC(=O)CN)CSCCc2cc(nc(N)n2)CCSC[C@@H](C(=O)N[C@@H](CCC(N)=O)C(=O)N[C@@H](CCCCN)C(=O)N[C@@H](C)C(=O)N[C@H](C(=O)N[C@@H](CCCCN)C(=O)N[C@@H](CC(C)C)C(=O)N[C@@H](Cc2ccccc2)C(=O)N[C@@H](CO)C(=O)NCC(=O)O)C(C)C)NC(=O)[C@H](C)NC(=O)[C@H](CCC(N)=O)NC(=O)[C@H]([C@@H](C)O)NC(=O)[C@H](CO)NC(=O)[C@H](C(C)C)NC(=O)[C@H](CC(N)=O)NC1=O [SP30] (H-GCSGFSTASGKKLNVSTQACQKAVKLFSG-OH; linker 2-20 via X1) | depolymerise RAD51 from single-stranded DNA to similar extent | 
2 | CC(C)C[C@@H]1NC(=O)[C@H](CCCCN)NC(=O)[C@H](CCCCN)NC(=O)CNC(=O)[C@H](CO)NC(=O)[C@H](C)NC(=O)[C@H]([C@@H](C)O)NC(=O)[C@H](CO)NC(=O)[C@H](Cc2ccccc2)NC(=O)CNC(=O)[C@H](CO)NC(=O)[C@@H](NC(=O)CNC(=O)CNC(=O)[C@H](CCCNC(=N)N)NC(=O)[C@H](CCCNC(=N)N)NC(=O)[C@H](CCCNC(=N)N)NC(=O)[C@H](CCCNC(=N)N)NC(=O)[C@H](CCCNC(=N)N)NC(=O)[C@H](CCCNC(=N)N)NC(=O)[C@H](CCCNC(=N)N)NC(=O)[C@H](CCCNC(=N)N)NC(=O)[C@H](CCCNC(=N)N)NC(=O)CN)CSCCc2cc(nc(N)n2)CCSC[C@@H](C(=O)N[C@@H](CCC(N)=O)C(=O)N[C@@H](CCCCN)C(=O)N[C@@H](C)C(=O)N[C@H](C(=O)N[C@@H](CCCCN)C(=O)N[C@@H](CC(C)C)C(=O)N[C@@H](Cc2ccccc2)C(=O)N[C@@H](CO)C(=O)NCC(=O)O)C(C)C)NC(=O)[C@H](C)NC(=O)[C@H](CCC(N)=O)NC(=O)[C@H]([C@@H](C)O)NC(=O)[C@H](CO)NC(=O)[C@H](C(C)C)NC(=O)[C@H](CC(N)=O)NC1=O [SP31] (H-GRRRRRRRRRGGCSGFSTASGKKLNVSTQACQKAVKLFSG-OH; linker 13-31 via X1) |  | high affinity
